# Laboratory results from patent US11596639B2, “Substituted indole Mcl-1 inhibitors” (Vanderbilt University, priority 2016, dated 2023).
# Target: Mcl-1 (Homo sapiens (Human), UniProt Q07820)
# Assay: Fluorescence polarization anisotropy (FPA) competition assay, FITC-Bak or FITC-Bim BH3 peptide
# Assay type: binding
# Details: read-out: Ki for Inhibition of Mcl-1 by FPA assay
# Mcl-1, sequence (Q07820 172-327): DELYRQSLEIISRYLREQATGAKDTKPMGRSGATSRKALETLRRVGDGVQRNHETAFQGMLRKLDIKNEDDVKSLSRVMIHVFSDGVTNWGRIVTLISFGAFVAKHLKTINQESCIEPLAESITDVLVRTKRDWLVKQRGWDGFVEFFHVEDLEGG
row,SMILES,Ki [nM]
1,"COC(=O)c1ccc2c(c1)c(N1C[C@@H](C)n3c(c(CCCOc4cc(C)c(Cl)c(C)c4)c4ccc(Cl)c(-c5c(C)nn(C)c5C)c43)C1=O)cn2COCC[Si](C)(C)C [Example 243, Methyl (R)-3-(7-chloro-10-(3-(4-chloro-3,5-dimethylphenoxy)propyl)-4-methyl-1-oxo-6-(1,3,5-trimethyl-1H-pyrazol-4-yl)-3,4-dihydropyrazino[1,2-a]indol-2(1H)-yl)-1-((2-(trimethylsilyl)ethoxy)methyl)-1H-indole-5-carboxylate]",45
2,"Cc1cc(OCCCc2c3n(c4c(-c5c(C)nn(C)c5C)c(Cl)ccc24)CCCN(c2cc(C(=O)O)c4cnn(CCO)c4c2)C3=O)cc(C)c1Cl [Example 107, 6-[8-Chloro-11-[3-(4-chloro-3,5-dimethyl-phenoxy)propyl]-1-oxo-7-(1,3,5-trimethylpyrazol-4-yl)-4,5-dihydro-3H-[1,4]diazepino[1,2-a]indol-2-yl]-1-(2-hydroxyethyl)indazole-4-carboxylic acid]",< 1
3,"Cc1cc(OCCCc2c3n(c4c(-c5c(C)nn(C)c5C)c(Cl)ccc24)[C@H](C)CN(c2cccc4c2cc(C(N)=O)n4C)C3=O)cc(C)c1Cl [Example 266, 4-[(4R)-7-chloro-10-[3-(4-chloro-3,5-dimethyl-phenoxy)propyl]-4-methyl-1-oxo-6-(1,3,5-trimethylpyrazol-4-yl)-3,4-dihydropyrazino[1,2-a]indol-2-yl]-1-methyl-indole-2-carboxamide]",9.2
4,"Cc1cc(OCCCc2c(C(=O)NC3CCC(C(=O)O)CC3)[nH]c3c(-c4c(C)ncnc4C)c(Cl)ccc23)cc(C)c1Cl (single isomer, unassigned) [Example 747, 4-(6-Chloro-3-(3-(4-chloro-3,5-dimethylphenoxy)propyl)-7-(4,6-dimethylpyrimidin-5-yl)-1H-indole-2-carboxamido)cyclohexane-1-carboxylic acid]",16
5,"Cc1cc(CCCCc2c(C(=O)N3CCN(c4ccccc4C(=O)O)CC3)[nH]c3c(-c4c(C)nn(C)c4C)c(Cl)ccc23)cc(C)c1Cl [Example 744, 2-(4-(6-Chloro-3-(4-(4-chloro-3,5-dimethylphenyl)butyl)-7-(1,3,5-trimethyl-1H-pyrazol-4-yl)-1H-indole-2-carbonyl)piperazin-1-yl)benzoic acid]",30
6,"Cc1cc(CCCCc2c(C(=O)N3CCN(c4ccccc4C(=O)O)CC3)n(Cc3cccnc3)c3c(-c4c(C)nn(C)c4C)c(Cl)ccc23)cc(C)c1Cl [Example 739, 2-(4-(6-Chloro-3-(4-(4-chloro-3,5-dimethylphenyl)butyl)-1-(pyridin-3-ylmethyl)-7-(1,3,5-trimethyl-1H-pyrazol-4-yl)-1H-indole-2-carbonyl)piperazin-1-yl)benzoic acid]",73
7,"Cc1cc(OCCCc2c3n(c4c(-c5c(C)nn(C)c5C)c(Cl)ccc24)[C@H](C)CN(c2cnc4ccc(C(=O)O)cn24)C3=O)cc(C)c1Cl [Example 473, (R)-3-(7-chloro-10-(3-(4-chloro-3,5-dimethylphenoxy)propyl)-4-methyl-1-oxo-6-(1,3,5-trimethyl-1H-pyrazol-4-yl)-3,4-dihydropyrazino[1,2-a]indol-2(1H)-yl)imidazo[1,2-a]pyridine-6-carboxylic acid]",4.1
8,"Cc1cc(CCCCc2c(C(=O)N3CCN(c4ccnc(C(=O)O)c4)CC3)n(Cc3cccnc3)c3c(-c4c(C)nn(C)c4C)c(Cl)ccc23)cc(C)c1Cl [Example 742, 4-(4-(6-Chloro-3-(4-(4-chloro-3,5-dimethylphenyl)butyl)-1-(pyridin-3-ylmethyl)-7-(1,3,5-trimethyl-1H-pyrazol-4-yl)-1H-indole-2-carbonyl)piperazin-1-yl)picolinic acid]",> 200
9,"Cc1cc(OCCCc2c3n(c4c(-c5c(C)nn(C)c5C)c(Cl)ccc24)[C@H](C)CN(c2cn(C)c4ccc(-c5nnc(-c6ccccc6)o5)cc24)C3=O)cc(C)c1Cl [Example 421, (R)-7-chloro-10-(3-(4-chloro-3,5-dimethylphenoxy)propyl)-4-methyl-2-(1-methyl-5-(5-phenyl-1,3,4-oxadiazol-2-yl)-1H-indol-3-yl)-6-(1,3,5-trimethyl-1H-pyrazol-4-yl)-3,4-dihydropyrazino[1,2-a]indol-1(2H)-one]",3.4
10,"Cc1cc(OCCCc2c3n(c4c(-c5c(C)nn(C)c5C)c(Cl)ccc24)[C@H](C)CN(c2ccc(C(=O)O)c(Cl)c2)C3=O)cc(C)c1Cl [Example 35, (R)-2-chloro-4-(7-chloro-10-(3-(4-chloro-3,5-dimethylphenoxy)propyl)-4-methyl-1-oxo-6-(1,3,5-trimethyl-1H-pyrazol-4-yl)-3,4-dihydropyrazino[1,2-a]indol-2(1H)-yl)benzoic acid]",1.5
11,"Cc1cc(OCCCc2c3n(c4c(-c5c(C)nn(C)c5C)c(Cl)ccc24)CCCN(c2ccc4c(c2)CCCN4CC(=O)O)C3=O)cc(C)c1Cl [Example 46, 2-(6-(8-Chloro-11-(3-(4-chloro-3,5-dimethylphenoxy)propyl)-1-oxo-7-(1,3,5-trimethyl-1H-pyrazol-4-yl)-4,5-dihydro-1H-[1,4]diazepino[1,2-a]indol-2(3H)-yl)-3,4-dihydroquinolin-1(2H)-yl)acetic acid]",26
12,"Cc1cc(OCCCc2c(C(=O)N3CCN(c4cccc(C(=O)O)c4)CC3)[nH]c3c(-c4c(C)nn(C)c4C)c(Cl)ccc23)cc(C)c1Cl [Example 732, 3-(4-(6-chloro-3-(3-(4-chloro-3,5-dimethylphenoxy)propyl)-7-(1,3,5-trimethyl-1H-pyrazol-4-yl)-1H-indole-2-carbonyl)piperazin-1-yl)benzoic acid]",38
13,"Cc1cc(OCCCc2c3n(c4c(-c5c(C)nn(C)c5C)c(Cl)ccc24)[C@H](C)CN(c2cc(O)cc4c2cc(C(=O)O)n4C)C3=O)cc(C)c1Cl [Example 303, (P, R)-4-(7-chloro-10-(3-(4-chloro-3,5-dimethylphenoxy)propyl)-4-methyl-1-oxo-6-(1,3,5-trimethyl-1H-pyrazol-4-yl)-3,4-dihydropyrazino[1,2-a]indol-2(1H)-yl)-6-hydroxy-1-methyl-1H-indole-2-carboxylic acid]",< 1
14,"Cc1cc(OCCCc2c3n(c4c(-c5c(C)nn(C)c5C)c(Cl)ccc24)[C@H](C)CN(c2cccc4c2cc(C(=O)O)n4CCN2CCCC2)C3=O)cc(C)c1Cl [Example 369, (R)-4-(7-Chloro-10-(3-(4-chloro-3,5-dimethylphenoxy)propyl)-4-methyl-1-oxo-6-(1,3,5-trimethyl-1H-pyrazol-4-yl)-3,4-dihydropyrazino[1,2-a]indol-2(1H)-yl)-1-(2-(pyrrolidin-1-yl)ethyl)-1H-indole-2-carboxylic acid]",3.2
15,"Cc1cc(OCCCc2c3n(c4c(-c5c(C)nn(C)c5C)c(Cl)ccc24)[C@H](C)CN(c2ccc(OCC4CCN(C)C4)c4c2cc(C(=O)O)n4C)C3=O)cc(C)c1Cl (stereo partly shown) [Example 319, 4-((M, R)-7-Chloro-10-(3-(4-chloro-3,5-dimethylphenoxy)propyl)-4-methyl-1-oxo-6-(1,3,5-trimethyl-1H-pyrazol-4-yl)-3,4-dihydropyrazino[1,2-a]indol-2(1H)-yl)-1-methyl-7-((1-methylpyrrolidin-3-yl)methoxy)-1H-indole-2-carboxylic acid]",3.2
16,"Cc1cc(OCCCc2c3n(c4c(-c5c(C)nn(C)c5C)c(Cl)ccc24)CCCN(c2cc(C(=O)O)c4c(c2)nnn4C)C3=O)cc(C)c1Cl [Example 5, 6-[8-Chloro-11-[3-(4-chloro-3,5-dimethyl-phenoxy)propyl]-1-oxo-7-(1,3,5-trimethylpyrazol-4-yl)-4,5-dihydro-3H-[1,4]diazepino[1,2-a]indol-2-yl]-3-methyl-benzotriazole-4-carboxylic acid]",2.7
17,"COc1ccc(N2C[C@@H](C)n3c(c(CCCOc4cc(C)c(Cl)c(C)c4)c4ccc(Cl)c(-c5c(C)nn(C)c5C)c43)C2=O)c2c1c(C)c(C(=O)O)n2C [Example 351, (R)-7-(7-Chloro-10-(3-(4-chloro-3,5-dimethylphenoxy)propyl)-4-methyl-1-oxo-6-(1,3,5-trimethyl-1H-pyrazol-4-yl)-3,4-dihydropyrazino[1,2-a]indol-2(1H)-yl)-4-methoxy-1,3-dimethyl-1H-indole-2-carboxylic acid]",< 1
18,"Cc1cc(CCCCc2c(C(=O)N3CCN(c4ccnc(C(=O)O)c4)CC3)[nH]c3c(-c4c(C)nn(C)c4C)c(Cl)ccc23)cc(C)c1Cl [Example 738, 4-(4-(6-Chloro-3-(4-(4-chloro-3,5-dimethylphenyl)butyl)-7-(1,3,5-trimethyl-1H-pyrazol-4-yl)-1H-indole-2-carbonyl)piperazin-1-yl)picolinic acid]",200
19,"Cc1cc(OCCCc2c(C(=O)NCc3cccc(C(=O)O)c3)[nH]c3c(-c4c(C)ncnc4C)c(Cl)ccc23)cc(C)c1Cl [Example 748, 3-[[[6-Chloro-3-[3-(4-chloro-3,5-dimethyl-phenoxy)propyl]-7-(4,6-dimethylpyrimidin-5-yl)-1H-indole-2-carbonyl]amino]methyl]benzoic acid]",6.3
20,"Cc1cc(OCCCc2c3n(c4c(-c5c(C)nn(C)c5C)c(Cl)ccc24)CCCN(C2=CNC(C(=O)O)=C(O)N2)C3=O)cc(C)c1Cl [Example 73, 5-(8-Chloro-11-(3-(4-chloro-3,5-dimethylphenoxy)propyl)-1-oxo-7-(1,3,5-trimethyl-1H-pyrazol-4-yl)-4,5-dihydro-1H-[1,4]diazepino[1,2-a]indol-2(3H)-yl)-3-hydroxy-1,4-dihydropyrazine-2-carboxylic acid]",< 1
21,"Cc1cc(CCCCc2c(C(=O)N3CCN(c4cc(C(=O)O)ccn4)CC3)n(Cc3cccnc3)c3c(-c4c(C)nn(C)c4C)c(Cl)ccc23)cc(C)c1Cl [Example 741, 2-(4-(6-Chloro-3-(4-(4-chloro-3,5-dimethylphenyl)butyl)-1-(pyridin-3-ylmethyl)-7-(1,3,5-trimethyl-1H-pyrazol-4-yl)-1H-indole-2-carbonyl)piperazin-1-yl)isonicotinic acid]",> 200
22,"Cc1cc(OCCCc2c3n(c4c(-c5c(C)nn(C)c5C)c(Cl)ccc24)[C@H](C)CN(c2ccc4nc(C(=O)O)cn4c2)C3=O)cc(C)c1Cl [Example 139, (R)-6-(7-chloro-10-(3-(4-chloro-3,5-dimethylphenoxy)propyl)-4-methyl-1-oxo-6-(1,3,5-trimethyl-1H-pyrazol-4-yl)-3,4-dihydropyrazino[1,2-a]indol-2(1H)-yl)imidazo[1,2-a]pyridine-2-carboxylic acid]",1.1
